This is an account of results in patent publication US10087178B2, “Substituted spiropyrido[1,2-a]pyrazine derivative and medicinal use thereof as HIV integrase inhibitor” (priority 2012, dated 2018).

The structures appear in SMILES notation. Structures can show the parent of a compound that is named as a salt.

The first test has as its system HIV-1 NL4-3 strain. Put plainly: Evaluation of antiviral activity: acute infection system of MT-4 cell with HIV-1 NL4-3 strain. Conditions: Human immunodeficiency virus 1, NL43, MT4, 120 h, MT-4 cells infected with HIV-1 NL4-3 strain (MOI 0.05), cultured 5 days, Cell Titer-Glo; read-out: antiviral activity (EC50). It is filed as cell-based.
`CN(C)C(=O)[C@H]1C[C@@]12CN(C1CC1)C(=O)c1c(O)c(=O)c(C(=O)NCc3cccc(Cl)c3F)cn12` [Example T32, (1S,2S)-N^7′-(3-chloro-2-fluorobenzyl)-2′-cyclopropyl-9′-hydroxy-N^2,N^2-dimethyl-1′,8′-dioxo-1′,2′,3′,8′-tetrahydrospiro[cyclopropane-1,4′-pyrido[1,2-a]pyrazine]-2,7′-dicarboxamide]: the EC50 came to 3.3 nM.

`CCOC[C@H]1C[C@@]12Cn1cc(C(=O)NCc3cccc(Cl)c3F)c(=O)c(O)c1C(=O)N2CC` [Example T45, (1S,2S)-N-(3-chloro-2-fluorobenzyl)-2-(ethoxymethyl)-2′-ethyl-9′-hydroxy-1′,8′-dioxo-1′,2′,4′,8′-tetrahydrospiro[cyclopropane-1,3′-pyrido[1,2-a]pyrazine]-7′-carboxamide]: the EC50 stood at 4.4 nM.

`COc1ccc(CNC(=O)c2cn3c(c(O)c2=O)C(=O)N(C)C[C@]32C[C@H](CO)C2)c(F)c1Cl` [Example S50, N-(3-chloro-2-fluoro-4-methoxybenzyl)-9′-hydroxy- cis-3-(hydroxymethyl)-2′-methyl-1′,8′-dioxo-1′,2′,3′,8′-tetrahydrospiro[cyclobutane-1,4′-pyrido[1,2-a]pyrazine]-7′-carboxamide]: the concentration for a half-maximal effect (EC50) was 37 nM.

Regarding `CC(C)N1C(=O)c2c(O)c(=O)c(C(=O)NCc3ccc(F)cc3F)cn2C[C@@]12C[C@@H]2CO` [Example T42, (1S,2S)-N-(2,4-difluorobenzyl)-9′-hydroxy-2-(hydroxymethyl)-2′-isopropyl-1′,8′-dioxo-1′,2′,4′,8′-tetrahydrospiro[cyclopropane-1,3′-pyrido[1,2-a]pyrazine]-7′-carboxamide], the EC50 was determined as 3.7 nM.

Regarding `CCC(=O)Oc1c2n(cc(C(=O)NCc3cccc(Cl)c3F)c1=O)[C@]1(CN(C)C2=O)C[C@H](COC)C1` [Example S67, 7′-(3-chloro-2-fluorobenzylcarbamoyl)-cis-3-(methoxymethyl)-2′-methyl-1′,8′-dioxo-1′,2′,3′,8′-tetrahydrospiro[cyclobutane-1,4′-pyrido[1,2-a]pyrazin]-9′-yl propionate], the EC50 was 0.9 nM.

In the case of `CCO[C@H]1C[C@@]2(CN(C)C(=O)c3c(O)c(=O)c(C(=O)NCc4cccc(Cl)c4F)cn32)C1` [Example S28, N-(3-chloro-2-fluorobenzyl)- trans-3-ethoxy-9′-hydroxy-2′-methyl-1′,8′-dioxo-1′,2′,3′,8′-tetrahydrospiro[cyclobutane-1,4′-pyrido[1,2-a]pyrazine]-7′-carboxamide hydrochloride], the EC50 stood at 3.6 nM.

As to `CCOC[C@H]1C[C@]2(CN(CC)C(=O)c3c(O)c(=O)c(C(=O)NCc4cccc(Cl)c4F)cn32)C1` [Example S48, N-(3-chloro-2-fluorobenzyl)- cis-3-(ethoxymethyl)-2′-ethyl-9′-hydroxy-1′,8′-dioxo-1′,2′,3′,8′-tetrahydrospiro[cyclobutane-1,4′-pyrido[1,2-a]pyrazine]-7′-carboxamide hydrochloride], the EC50 turned out to be 4.3 nM.

Regarding `CCN1C(=O)c2c(O)c(=O)c(C(=O)NCc3ccc(F)cc3F)cn2C[C@@]12C[C@@H]2COC` [Example T40, (1S,2S)-N-(2,4-difluorobenzyl)-2′-ethyl-9′-hydroxy-2-(methoxymethyl)-1′,8′-dioxo-1′,2′,4′,8′-tetrahydrospiro[cylcopropane-1,3′-pyrido[1,2-a]pyrazine]-7′-carboxamide hydrochloride], the EC50 is 1.9 nM.

The test is the same for the next values; noted with them: Human immunodeficiency virus 1, NL43, MT4, 120 h, antiviral activity; MT-4 cells infected with HIV-1 NL4-3 (MOI 0.05), 5 days culture, Cell Titer-Glo luminescence; read-out: EC50.
As for `CCN1C[C@]2(C[C@@H](OC)C2)n2cc(C(=O)NCc3ccc(F)cc3F)c(=O)c(O)c2C1=O` [Example S19, N-(2,4-difluorobenzyl)-2′-ethyl-9′-hydroxy-trans-3-methoxy-1′,8′-dioxo-1′,2′,3′,8′-tetrahydrospiro[cyclobutane-1,4′-pyrido[1,2-a]pyrazine]-7′-carboxamide hydrochloride], the EC50 was found to be 4.8 nM.

As for `CN1C[C@]2(C[C@@H](OCc3ccccc3)C2)n2cc(C(=O)NCc3ccc(F)cc3F)c(=O)c(O)c2C1=O` [Example S9, trans-3-(benzyloxy)-N-(2,4-difluorobenzyl)-9′-hydroxy-2′-methyl-1′,8′-dioxo-1′,2′,3′,8′-tetrahydrospiro[cyclobutane-1,4′-pyrido[1,2-a]pyrazine]-7′-carboxamide hydrochloride], the EC50 is 5.2 nM.

Consider `CO[C@H]1C[C@@]2(CN(C(C)C)C(=O)c3c(O)c(=O)c(C(=O)NCc4ccc(F)cc4F)cn32)C1` [Example S5, N-(2,4-difluorobenzyl)-9′-hydroxy-2′-isopropyl-trans-3-methoxy-1′,8′-dioxo-1′,2′,3′,8′-tetrahydrospiro[cyclobutane-1,4′-pyrido[1,2-a]pyrazine]-7′-carboxamide hydrochloride], for which the concentration giving a half-maximal response (EC50) was found to be 4.4 nM.

The test is the same for the next values; noted with them: Human immunodeficiency virus 1, NL43, MT4, 120 h, read-out: antiviral activity (EC50), MT-4 cells infected with HIV-1 NL4-3 strain (MOI 0.05), cultured 5 days, Cell Titer-Glo.
For `CCOc1ccc(CNC(=O)c2cn3c(c(O)c2=O)C(=O)N(C)C[C@@]32C[C@@H]2COC)c(F)c1Cl` [Example T37, (1S,2S)-N-(3-chloro-4-ethoxy-2-fluorobenzyl)-9′-hydroxy-2-(methoxymethyl)-2′-methyl-1′,8′-dioxo-1′,2′,3′,8′-tetrahydrospiro[cyclopropane-1,4′-pyrido[1,2-a]pyrazine]-7′-carboxamide hydrochloride], the EC50 turned out to be 93 nM.

Regarding `CCN1C(=O)c2c(O)c(=O)c(C(=O)NCc3ccc(F)cc3F)cn2C[C@@]12C[C@@H]2CO` [Example T39, (1S,2S)-N-(2,4-difluorobenzyl)-2′-ethyl-9′-hydroxy-2-(hydroxymethyl)-1′,8′-dioxo-1′,2′,4′,8′-tetrahydrospiro[cyclopropane-1,3′-pyrido[1,2-a]pyrazine]-7′-carboxamide hydrochloride], the 50% effective concentration (EC50) came out at 2.8 nM.

For the compound `CCOC[C@@H]1C[C@]12CN(C)C(=O)c1c(O)c(=O)c(C(=O)NCc3ccc(OC)c(Cl)c3F)cn12` [Example T35, (1R,2R)-N-(3-chloro-2-fluoro-4-methoxybenzyl)-2-(ethoxymethyl)-9′-hydroxy-2′-methyl-1′,8′-dioxo-1′,2′,3′,8′-tetrahydrospiro[cyclopropane-1,4′-pyrido[1,2-a]pyrazine]-7′-carboxamide hydrochloride], the EC50 came to 17 nM.

Still in this test, the particulars now being: Human immunodeficiency virus 1, NL43, MT4, 120 h; read-out: antiviral activity (EC50).
Take `COC[C@H]1C[C@]2(CN(C)C(=O)c3c(OC(=O)/C=C/C(=O)O)c(=O)c(C(=O)NCc4cccc(Cl)c4F)cn32)C1` [Example 39, (E)-4-[7′-(3-chloro-2-fluorobenzylcarbamoyl)-cis-3-(methoxymethyl)-2′-methyl-1′,8′-dioxo-1′,2′,3′,8′-tetrahydrospiro[cyclobutane-1,4′-pyrido[1,2-a]pyrazin]-9′-yloxy]-4-oxobut-2-enoic acid]: the concentration for a half-maximal effect (EC50) turned out to be 1.4 nM.

The same test, now with this note: MT-4 cells infected with HIV-1 NL4-3 strain (MOI 0.05), cultured 5 days, Cell Titer-Glo; read-out: antiviral activity (EC50).
With `CCN1C[C@@]2(C[C@@H]2COC)n2cc(C(=O)NCc3cccc(C(F)(F)F)c3F)c(=O)c(O)c2C1=O` [Example T27, (1S,2S)-2′-ethyl-N-(2-fluoro-3-(trifluoromethyl)benzyl)-9′-hydroxy-2-(methoxymethyl)-1′,8′-dioxo-1′,2′,3′,8′-tetrahydrospiro[cyclopropane-1,4′-pyrido[1,2-a]pyrazine]-7′-carboxamide], the concentration for a half-maximal effect (EC50) is 97 nM.

In the case of `COC[C@H]1C[C@]2(CN(C)C(=O)c3c(O)c(=O)c(C(=O)NCc4cccc(Cl)c4F)cn32)C1` [Example 33, N-(3-chloro-2-fluorobenzyl)-9′-hydroxy-cis-3-(methoxymethyl)-2′-methyl-1′,8′-dioxo-1′,2′,3′,8′-tetrahydrospiro[cyclobutane-1,4′-pyrido[1,2-a]pyrazine]-7′-carboxamide 4-methylbenzenesulfonate], the EC50 was determined as 0.9 nM.
